According to EP4759807A1, “PROTEOLYSIS TARGETING CHIMERA COMPOUND FOR DEGRADING IRAK4 AND USE THEREOF” (Shenzhen Zhongge Biological Technology Co., Ltd., priority 2023, dated 2025):

Target: T1, IRAK4 (Homo sapiens, UniProt Q9NWZ3)
T1 sequence (Q9NWZ3 1-460): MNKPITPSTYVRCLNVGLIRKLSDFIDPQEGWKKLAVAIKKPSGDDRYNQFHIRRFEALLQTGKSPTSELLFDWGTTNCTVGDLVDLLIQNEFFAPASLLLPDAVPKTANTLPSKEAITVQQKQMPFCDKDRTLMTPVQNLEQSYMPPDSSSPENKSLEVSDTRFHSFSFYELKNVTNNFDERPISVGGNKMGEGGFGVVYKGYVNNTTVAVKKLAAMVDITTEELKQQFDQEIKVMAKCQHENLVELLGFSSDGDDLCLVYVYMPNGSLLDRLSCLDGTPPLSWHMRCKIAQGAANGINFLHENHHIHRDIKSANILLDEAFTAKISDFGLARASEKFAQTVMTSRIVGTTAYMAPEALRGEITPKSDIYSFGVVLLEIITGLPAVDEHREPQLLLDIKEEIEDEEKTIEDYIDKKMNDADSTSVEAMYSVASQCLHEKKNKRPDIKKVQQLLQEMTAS
Test: Hibit fluorescence detection of proteolysis (IRAK4-HiBiT in HEK293T cells)
Format: cell-based
Design: host or cells: HEK293T (ATCC)
Settings: for Dmax: HEK-293T; for DC50: IRAK4-HiBiT, HEK293T cells, 24 h
Experimental: Utilizing HiBiT tag technology, the HiBiT tag-containing sequence (Seq. ID. No. 1, Beijing Tsingke Biotech Co., Ltd.) was connected to the IRAK4 plasmid (Seq. ID. No. 2, Beijing Tsingke Biotech Co., Ltd.), and the plasmid was transfected into HEK293T cells (ATCC). […] The 6-well plate that was incubated overnight was taken out. After the plate was left at room temperature for 15 min, the obtained mixture was added dropwise to the 6-well plate. […] Culture was performed at 37°C and 5% CO2 for 24 h. The 384-well plate was taken out and equilibrated to room temperature. 40 µL of Nano-Glo® HiBiT Lytic Detection System (Promega N3030) was added to each well and incubated at room temperature for 15 min. […] Prism 9.3 software was used to perform fitting analysis for data, and non-linear fitting (non-liner inhibitor (Bell-shaped)) and four parameters (4 parameter) were used, and the parameters was as follows: Span1 = Plateau1−Dip [formula] Span2 = Plateau2−Dip [formula] Section1 = Span1/(1+10^(∧)((LogEC50_1−X)*nH1)) [formula] Section2 = Span2/(1+10^(∧)((X−LogEC50_2)*nH2)) [formula]
The equation was as follows: Y=Dip+Section1+Section2. • Seq. ID. No. 1 ([…]), other DNA, synthetic construct, sequence length 33; • Seq. ID. No. 2 [formula]

SMILES	Dmax	DC50
CN(CC1CCN(CCC#Cc2cccc3c2n(C)c(=O)n3C2CCC(=O)NC2=O)CC1)C[C@H]1CC[C@H](n2cc(-n3cc(-c4cnn5ccc(N6CCOCC6)nc45)nn3)c(C(F)F)n2)CC1 (stereo partly shown) [Example 25]	< 60%	< 0.5 nM
Cn1c(=O)n(C2CCC(=O)NC2=O)c2cccc(NCCC3CC4(C3)CN(C[C@H]3CC[C@H](n5cc(-n6cc(-c7cnn8ccc(N9CCOCC9)nc78)nn6)c(C(F)F)n5)CC3)C4)c21 (stereo partly shown) [Example 26, 3-(4-((2-(2-(((1r,4r)-4-(3-(difluoromethyl)-4-(4-(5-morpholinopyrazolo[1,5-a]pyrimidin-3-yl)-1H-1,2,3-triazol-1-yl)-1H-pyrazol-1-yl)cyclohexyl)methyl)-2-azaspiro[3.3]heptan-6-yl)ehtyl)amino)-3-methyl-2-oxo-2,3-dihydro-1H-benzo[d]imidazol-1-yl)piperidine-2,6-dione]	70 to 80%	< 0.5 nM
Cn1c(=O)n(C2CCC(=O)NC2=O)c2cccc(C#CC3CN(C[C@H]4CC[C@H](n5cc(-n6cc(-c7cnn8ccc(N9CCOCC9)nc78)nn6)c(C(F)F)n5)CC4)C3)c21 (stereo partly shown) [Example 27]	60 to 70%	< 0.5 nM
O=C1CCC(NC(=O)c2ccc(N3CCN(C[C@H]4CC[C@H](n5cc(-n6cc(-c7cnn8ccc(N9CCOCC9)nc78)nn6)c(C(F)F)n5)CC4)CC3)cc2F)C(=O)N1 (stereo partly shown) [Example 28]	60 to 70%	> 5 nM
Cn1c(=O)n(C2CCC(=O)NC2=O)c2cccc(C(=O)N3CCC(NC[C@H]4CC[C@H](n5cc(-n6cc(-c7cnn8ccc(N9CCOCC9)nc78)nn6)c(C(F)F)n5)CC4)CC3)c21 (stereo partly shown) [Example 29]	70 to 80%	> 5 nM
NC(=O)c1cnn2c(-c3cn(-c4cn([C@H]5CC[C@H](CN6CCN(c7ccc(C(=O)NC8CCC(=O)NC8=O)c(F)c7)CC6)CC5)nc4C(F)F)nn3)ccc2c1 (stereo partly shown) [Example 31]	70 to 80%	> 5 nM
Cn1c(=O)n(C2CCC(=O)NC2=O)c2cccc(N3CCC4(CCN(C[C@H]5CC[C@H](n6cc(-n7cc(-c8cnn9ccc(N%10CCOCC%10)nc89)nn7)c(C(F)F)n6)CC5)C4)C3)c21 (stereo partly shown) [Example 32, 3-(4-((1r,4r)-4-(3-(difluoromethyl)-4-(4-(5-morpholinopyrazolo[[1,5-a]pyrimidin-3-yl)-1H-1,2,3-triazol-1-yl)-1H-pyrazol-1-yl)cyclohexylmethyl)-2,7-diazaspiro[4.4]non-2-yl)-3-methyl-2-oxo-2,3-dihydro-1H-benzo[d]imidazol-1-yl)piperidine-2,6-dione]	70 to 80%	< 0.5 nM
Cn1c(=O)n(C2CCC(=O)NC2=O)c2cccc(N3CC4CN(C[C@H]5CC[C@H](n6cc(-n7cc(-c8cnn9ccc(N%10CCOCC%10)nc89)nn7)c(C(F)F)n6)CC5)CC4C3)c21 (stereo partly drawn) [Example 33, 3-(4-((1R,4R)-4-(3-(difluoromethyl)-4-(4-(5-morpholinopyrazolo[[1,5-a]pyrimidin-3-yl)-1H-1,2,3-triazol-1-yl)-1H-pyrazol-1-yl)cyclohexyl)methylhexahydropyrrolo[3,4-c]pyrrol-2(1H)-yl)-3-methyl-2-oxo-2,3-dihydro-1H-benzo[d]imidazol-1-yl)piperidine-2,6-dione]	60 to 70%	< 0.5 nM
Cn1c(=O)n(C2CCC(=O)NC2=O)c2cccc(N3CCOC4(CCN(C[C@H]5CC[C@H](n6cc(-n7cc(-c8cnn9ccc(N%10CCOCC%10)nc89)nn7)c(C(F)F)n6)CC5)CC4)C3)c21 (stereo partly shown) [Example 38]	< 60%	< 0.5 nM
Cn1c(=O)n(C2CCC(=O)NC2=O)c2cccc(N3CCN(C4CCN(C[C@H]5CC[C@H](n6cc(-n7cc(-c8cnn9ccc(N%10CCOCC%10)nc89)nn7)c(C(F)F)n6)CC5)CC4)CC3)c21 (stereo partly shown) [Example 40]	> 80%	< 0.5 nM
Cn1c(=O)n(C2CCC(=O)NC2=O)c2cccc(N3CCC4(CC3)CN(C[C@H]3CC[C@H](n5cc(-n6cc(-c7cnn8ccc(N9CCOCC9)nc78)nn6)c(C(F)F)n5)CC3)CCO4)c21 (stereo partly shown) [Example 41]	70 to 80%	1 to 5 nM
Cn1c(=O)n(C2CCC(=O)NC2=O)c2cccc(N3CC(N4CCN(C[C@H]5CC[C@H](n6cc(-n7cc(-c8cnn9ccc(N%10CCOCC%10)nc89)nn7)c(C(F)F)n6)CC5)CC4)C3)c21 (stereo partly shown) [Example 42, 3-(4-(3-(4-(((1r,4r)-4-(3-(difluoromethyl)-4-(4-(5-morpholinopyrazolo[1,5-a]pyrimidin-3-yl)-1H-1,2,3-triazol-1-yl)-1H-pyrazol-1-yl)cyclohexyl)methyl)piperazin-1-yl)azetidin-1-yl)-3-methyl-2-oxo-2,3-dihydro-1H-benzo[d]imidazol-1-yl)piperidine-2,6-dione]	< 60%	< 0.5 nM
Cn1c(=O)n(C2CCC(=O)NC2=O)c2cccc(N3CC4(CCN(C[C@H]5CC[C@H](n6cc(-n7cc(-c8cnn9ccc(N%10CCOCC%10)nc89)nn7)c(C(F)F)n6)CC5)CC4)C3)c21 (stereo partly shown) [Example 43, 3-(4-(7-(((1r,4r)-4-(3-(difluoromethyl)-4-(4-(5-morpholinopyrazolo[1,5-a]pyrimidin-3-yl)-1H-1,2,3-triazol-1-yl)-1H-pyrazol-1-yl)cyclohexyl)methyl)-2,7-diazaspiro[3.5]nonan-2-yl)-3-methyl-2-oxo-2,3-dihydro-1H-benzo[d]imidazol-1-yl)piperidine-2,6-dione]	> 80%	< 0.5 nM
Cn1c(=O)n(C2CCC(=O)NC2=O)c2cccc(N3CCN(C4CN(C[C@H]5CC[C@H](n6cc(-n7cc(-c8cnn9ccc(N%10CCOCC%10)nc89)nn7)c(C(F)F)n6)CC5)C4)CC3)c21 (stereo partly shown) [Example 44]	> 80%	< 0.5 nM
Cn1c(=O)n(C2CCC(=O)NC2=O)c2cccc(N3CCC4(CCN(C[C@H]5CC[C@H](n6cc(-n7cc(-c8cnn9ccc(N%10CCOCC%10)nc89)nn7)c(C(F)F)n6)CC5)CC4)C3)c21 (stereo partly shown) [Example 45]	70 to 80%	< 0.5 nM
C[C@@H]1CN(C[C@H]2CC[C@H](n3cc(-n4cc(-c5cnn6ccc(N7CCOCC7)nc56)nn4)c(C(F)F)n3)CC2)CCN1c1cccc2c1n(C)c(=O)n2C1CCC(=O)NC1=O (stereo partly drawn) [Example 46, 3-(4-((R)-4-(((1r,4R)-4-(3-(difluoromethyl)-4-(4-(5-morpholinopyrazolo[1,5-a]pyrimidin-3-yl)-1H-1,2,3-triazol-1-yl)-1H-pyrazol-1-yl)cyclohexyl)methyl)-2-methylpiperazin-1-yl)-3-methyl-2-oxo-2,3-dihydro-1H-benzo[d]imidazol-1-yl)piperidine-2,6-dione]	70 to 80%	< 0.5 nM
Cn1c(=O)n(C2CCC(=O)NC2=O)c2cccc(N3CCC4(CC3)CN(C[C@H]3CC[C@H](n5cc(-n6cc(-c7cnn8ccc(N9CCOCC9)nc78)nn6)c(C(F)F)n5)CC3)C4)c21 (stereo partly shown) [Example 47]	70 to 80%	< 0.5 nM
Cn1c(=O)n(C2CCC(=O)NC2=O)c2cccc(N3C4CCC3CN(C[C@H]3CC[C@H](n5cc(-n6cc(-c7cnn8ccc(N9CCOCC9)nc78)nn6)c(C(F)F)n5)CC3)C4)c21 (stereo partly shown) [Example 48, 3-(4-((1r,4r)-4-(3-(difluoromethyl)-4-(4-(5-morpholinopyrazolo[[1,5-a]pyrimidin-3-yl)-1H-1,2,3-triazol-1-yl)-1H-pyrazol-1-yl)cyclohexyl)-3,8-diazabicyclo[3.2.1]oct-8-yl)-3-methyl-2-oxo-2,3-dihydro-1H-benzo[d]imidazol-1-yl)piperidine-2,6-dione]	60 to 70%	> 5 nM
Cn1c(=O)n(C2CCC(=O)NC2=O)c2cccc(N3CC4CCC(C3)N4C[C@H]3CC[C@H](n4cc(-n5cc(-c6cnn7ccc(N8CCOCC8)nc67)nn5)c(C(F)F)n4)CC3)c21 (stereo partly drawn) [Example 49, 3-(4-((1R,4R)-4-(3-(difluoromethyl)-4-(4-(5-morpholinopyrazolo[[1,5-a]pyrimidin-3-yl)-1H-1,2,3-triazol-1-yl)-1H-pyrazol-1-yl)cyclohexyl)-3,8-diazabicyclo[3.2.1]oct-3-yl)-3-methyl-2-oxo-2,3-dihydro-1H-benzo[d]imidazol-1-yl)piperidine-2,6-dione]	70 to 80%	1 to 5 nM
C[C@@H]1CN(c2cccc3c2n(C)c(=O)n3C2CCC(=O)NC2=O)CCN1C[C@H]1CC[C@H](n2cc(-n3cc(-c4cnn5ccc(N6CCOCC6)nc45)nn3)c(C(F)F)n2)CC1 (stereo partly shown) [Example 50]	60 to 70%	0.5 to 1 nM
